Consider two compounds from patent US4165379A, “N-acetyl thienamycin” (Merck & Co., Inc., priority 1977, dated 1979).

Each structure is given as a SMILES string. Read-outs that look alike come from different tables or passages of the source.

Data set [1] can be described thus: pKa from the λ max dependence on pH. In kind it is physicochemical. Particulars: read-out: pKa for a COOH group.
Data set [2] has as its system Staph aureus 2949. The data set can be described thus: Efficacy studies (mice), intraperitoneal infection (Table 4). In kind it is in vivo, CD-1 female mice infected with Staph aureus. As to conditions: Staphylococcus aureus, 2949, ip, 168 h; i.p. × 2, at time of infection and again 6 hours later; challenge 13 LD50; survival seventh day after infection. The procedure: (§1) In determining the in vivo activity, N-acetyl thienamycin is dissolved in and diluted with 0.01 M sodium phosphate, pH 7.0, to provide five fourfold concentrations of drug for testing. Female white Swiss mice, averaging about 21 g. in weight, were infected intraperitoneally with the test organism suspended in broth. The numbers of organisms injected were determined by standard plate-count techniques. At the time of infection, and again 6 hours later, certain of the mice were treated intraperitoneally with the antibiotic. Five mice were used for each concentration of drug tested. Controls of five mice for each of several dilutions of the infecting culture were included in each test in order to calculate the numbers of organisms that were lethal to 50% of the infected, untreated mice (LD50). This calculation was made using survival data of the seventh day after infection, at which time the amount of drug that should protect 50% of the infected mice (ED50) also was calculated.

Data set [3] deals with Proteus mirabilis. Kind of data set: Bauer-Kirby disc diffusion antibiotic spectrum (Table 3). Particulars: MB2830, resistance P,C (penicillins, cephalosporins), read-out: diameter of the zone of inhibition. Type of data set: cell-based. The text has this: (§2) The test employs the Bauer-Kirby disc diffusion method modified only in respect to the 2 mm. agar depth employed here.

Data set [4] relates to Escherichia coli. Described as above. As to conditions: read-out: diameter of the zone of inhibition; for zone of inhibition at 10.35 µg/disc: Escherichia coli, 10.35 μg/disc, prepared by acetylating thienamycin; for zone of inhibition at 9.85 µg/disc: 9.85 μg/disc, prepared by fermenting Streptomyces cattleya. Type of data set: cell-based.
Excerpt: as §2

In data set [5] the test system is Proteus morganii. The data set is described as above. Type of data set: cell-based. As to conditions: MB2833, resistance P,C (penicillins, cephalosporins), read-out: diameter of the zone of inhibition.
Excerpt: as §2

In data set [6] the test system is Staphylococcus aureus. Described as above. As to conditions: for diameter of the zone of inhibition: MB2314, resistance P (penicillins). Type of data set: cell-based.
Excerpt: as §2

Data set [7] relates to Bacillus subtilis. The data set is described as above. Type of data set: cell-based. As to conditions: MB 964, ATCC 6633, read-out: diameter of the zone of inhibition.
Excerpt: as §2

Data set [8] has as its system Enterobacter cloacae. The data set is described as above. Type of data set: cell-based. Particulars: read-out: diameter of the zone of inhibition; for zone of inhibition at 10.35 µg/disc: Enterobacter cloacae, 10.35 μg/disc, prepared by acetylating thienamycin; for zone of inhibition at 9.85 µg/disc: 9.85 μg/disc, prepared by fermenting Streptomyces cattleya.
Excerpt: as §2

For data set [9], the system named is Serratia. Described as above. Type of data set: cell-based. Particulars: MB2840, resistance P,C (penicillins, cephalosporins), read-out: diameter of the zone of inhibition.
Excerpt: as §2

Data set [10] has as its system Pseudomonas aeruginosa. The description is as above. As to conditions: read-out: diameter of the zone of inhibition; for zone of inhibition at 9.85 µg/disc: 9.85 μg/disc, prepared by fermenting Streptomyces cattleya; for zone of inhibition at 10.35 µg/disc: Pseudomonas aeruginosa, 10.35 μg/disc, prepared by acetylating thienamycin. In kind it is cell-based.
Excerpt: as §2

Data set [11] relates to Klebsiella pneumoniae. The data set is described as above. In kind it is cell-based. As to conditions: read-out: diameter of the zone of inhibition; for zone of inhibition at 10.35 µg/disc: Klebsiella pneumoniae, 10.35 μg/disc, prepared by acetylating thienamycin; for zone of inhibition at 9.85 µg/disc: 9.85 μg/disc, prepared by fermenting Streptomyces cattleya.
Excerpt: as §2

Data set [12] relates to Vibrio percolans ATCC 8461. Kind of data set: Disc-diffusion bioassay on ATCC 8461 plates. Type of data set: cell-based. As to conditions: crude sample (244 absorbance units at 298 nm); 1/2 inch disc, 0.1 ml of 1000 fold dilution; 25° C. On the procedure: Assays of antibacterial activity are run according to the following disc-diffusion method using either Vibrio percolans ATCC 8461 or Staphylococcus aureus ATCC […] as tester organism. Plates containing Vibrio percolans ATCC 8461 are prepared as follows: A lyophilized culture of Vibrio percolans ATCC 8461 is suspended in 15 ml. of a sterilized medium containing 8 g./l. of Difco Nutrient Broth and 2 g./l. of yeast extract in distilled water (hereinafter designated NBYE). The culture is incubated overnight on a rotary shaker at 28° C. This culture is used to inoculate the surface of […] containing 1.5% agar in NBYE, and the inoculated […] incubated overnight at 28° C. and then stored in a refrigerator. The refrigerated […] prepared from a single lyophilized culture are used for up to four weeks from their preparation, as follows: A loop of inoculum from the slant is dispersed in 50 ml. of NBYE contained in a 250 ml. Erlenmeyer flask. […] The plates are incubated at 37° C. overnight, and the zone of inhibition is measured as mm. diameter. The zone of inhibition measured in mm. determines relative potencies. […] The solution contains 244 absorbance units at 298 nm and a 1/2 inch assay disc containing 0.1 ml. of a 1000 fold dilution, produces a 23 mm. zone of inhibition when incubated on ATCC 8461 plates at 25° C.

In data set [13] the test system is gram-negative and gram-positive organisms. Kind of data set: In vivo activity against infections in mice. As to conditions: mouse. On the procedure:
as §1

Data set [14] deals with Staphylococcus aureus ATCC 6538P. The data set can be described thus: Disc-diffusion potency in units/mg relative to cephalothin. In kind it is cell-based. The procedure: Plates containing Staphylococcus aureus ATCC 6538P are prepared as follows:
An overnight growth of the assay organism, Staphylococcus aureus ATCC 6538P, in nutrient broth plus 0.2% yeast extract is diluted with nutrient broth plus 0.2% yeast extract to a suspension having 55% transmittance at a wavelength of 660 nm. This suspension is added to Difco nutrient agar supplemented with 2.0 g./l. Difco yeast extract at 47° C. to 48° C., to make a composition containing 33.2 ml. of the suspension per liter of agar. Five ml. of this suspension is poured into petri dishes of 85 mm. diameter, and these plates are chilled and held at 4° C. until used (5 day maximum).
Samples of antibiotic to be assayed are diluted to an appropriate concentration in phosphate buffer at pH 7. Filter paper discs, 1/4 or 1/2 inch diameter, are dipped into the test solution and placed on the surface of the assay plate. The plates are incubated at 37° C. overnight, and the zone of inhibition is measured as mm. diameter. The zone of inhibition measured in mm. determines relative potencies.
The 48 l. concentrate is adjusted to pH 7.3 and adsorbed on 76 l. of Dowex 1×2, 50 to 100 mesh, chloride cycle resin at 7.6 l./min. The resin is eluted with deionized water at the same rate. Four fractions are collected, two of 48 l., one of 70 l. and one of 48 l. The fractions are adjusted to pH 7 as collected. Assays indicate that 68% of the starting bioactivity is in the 70 l. fraction. This fraction is concentrated to 18 l. at pH 7.0 and filtered using a 0.45 micron Millipore Filter.

[15] abbreviates: 9.85 μg/disc, prepared by fermenting Streptomyces cattleya.
[16] abbreviates: MB2482, resistance P (penicillins).
[17] abbreviates: MB2964, resistance P,C (penicillins, cephalosporins).
Setting [18] is: MB2646, resistance P,C (penicillins, cephalosporins).
Where [19] appears, read: MB2824, resistance P,C (penicillins, cephalosporins).
Setting [20] is: MB2835, resistance P,C (penicillins, cephalosporins), zone hazy.
Setting [21] is: MB3286, resistance P,C (penicillins, cephalosporins).
[22] abbreviates: MB2921, resistance P (penicillins).
[23] abbreviates: MB2922, resistance P (penicillins).

In the case of `CC(=O)NCCSC1=C(C(=O)O)N2C(=O)C(C(C)O)C2C1` (centres unmarked) [N-Acetyl Thienamycin, N-acetyl thienamycin], in [1], the pKa was found to be 3.3 ± 0.1. The 50% effect level in data set [2] (ED50) was put at a dose of 0.05 mg/kg. Moreover, the zone of inhibition at 9.85 µg/disc was determined as 25 mm in data set [3] (setting [15]); 28 mm in data set [4] (setting [16]); 31.5 mm in data set [4] (MB2884); 28.5 mm in data set [4] (setting [17]); 25.5 mm in data set [5] (setting [15]); 37 mm in data set [6] (MB2985, 9.85 μg/disc, prepared by fermenting Streptomyces cattleya, read-out: diameter of the zone of inhibition). The zone of inhibition at 9.85 µg/disc in [7] (setting [15]) was 43 mm; in data set [8] (setting [18]) it was 26.5 mm; in data set [8] (MB2647), 29 mm; in data set [9] (setting [15]), 27 mm; in data set [10] (setting [19]), 23 mm; in data set [10] (setting [20]), 11 mm. Further, the zone of inhibition at 9.85 µg/disc in data set [10] (setting [21]) worked out at 0 mm; in data set [11] (setting [22]) it was 28 mm; in data set [11] (setting [23]), 27 mm. The zone of inhibition at 10.35 µg/disc in data set [3] (Proteus mirabilis, 10.35 μg/disc, prepared by acetylating thienamycin) stood at 26 mm; in [4] (setting [16]) it was 28 mm; in [4] (MB2884), 31.5 mm; in data set [4] (setting [17]), 29.5 mm; in data set [5] (Morganella morganii, 10.35 μg/disc, prepared by acetylating thienamycin), 25 mm; in data set [6] (Staphylococcus aureus, MB2985, 10.35 μg/disc, prepared by acetylating thienamycin, read-out: diameter of the zone of inhibition), 37 mm. Moreover, the zone of inhibition at 10.35 µg/disc in data set [7] (Bacillus subtilis, ATCC6633, 10.35 μg/disc, prepared by acetylating thienamycin) was determined as 44.5 mm; in data set [8] (setting [18]), 27 mm; in [8] (MB2647) it was 29 mm; in data set [9] (Serratia, 10.35 μg/disc, prepared by acetylating thienamycin), 27 mm; in data set [10] (setting [19]) it was 24 mm; in [10] (setting [20]) it was 11 mm. Also, the zone of inhibition at 10.35 µg/disc was found to be 0 mm in data set [10] (setting [21]), 28.5 mm in data set [11] (setting [22]) and 30 mm in data set [11] (setting [23]). Moreover, the “diameter of the zone of inhibition” value in [6] (setting [15]) is 37 millimeters; in [6] (10.35 μg/disc, prepared by acetylating thienamycin), 37 millimeters. In data set [12], this compound yielded a zone of inhibition of 23 mm. Further, in [13], the in vivo activity result was “exhibits in vivo activity against gram-negative and gram-positive organisms”.

On to `C[C@@H](O)[C@H]1C(=O)N2C(C(=O)O)=C(SCCN)C[C@H]12` [thienamycin], for which the calculated potency is recorded as 30,140 units/mg in [14] (23.6 mg. after second XAD-2 column) and 31,000 units/mg in data set [14] (after second XAD-2 column, 3.1 fold purification). In addition, the average potency in data set [14] (90 mg. after Bio-Gel P-2, fractions 75 through 80) was 10,000 units/mg. In addition, the potency in data set [14] (100.5 mg. after Bio-Gel P-2, fractions 75 through 79) is on record as 8,320 units/mg; in data set [14] (freeze-dried product after Dowex 1×2) it was 310 units/mg.
